# From patent publication EP0252983B1, “SALTS OF N-(VINYLOXIETHYL)DITHIOCARBAMIC ACID, METHOD OF OBTAINING THEREOF AND […] ON THEM” (priority 1985, dated 1987)
# Read-outs that look alike come from different tables or passages of the source.
# Key:
# [1] = test system: Penicillium funiculosum; assay: Mycelial growth inhibition on agar (contact activity); format: cell-based
# Experimental: (§1) Die Prüfungen werden nach dem Verfahren zur Ermittlung der Kontaktaktivität durchgeführt. Man verwendet das in Wasser gelöste Kalium-N-(vinyloxyäthyl)dithiocarbamat, führt es in ein Nährmedium ein und vergießt auf Petri-Schalen. Nach 24 Stunden wird mit Pilzmyzelium nach einem Stichverfahren geimpft. Dann temperiert man die Schalen innerhalb von 5 Tagen bei einer zwischen 24 und 26 °C liegenden Temperatur und mißt den Durchmesser von Pilzkolonien, ermittelt den Prozentsatz der Hemmung des Myzelwachstums (S) ausgehend von Angaben am 5. Tag nach der Abbott-Formel [drawing 13] worin dc für den Durchmesser der Pilzkolonien, de für den Durchmesser von Pilzkolonien in der Schale stehen, wo ein die zu prüfenden Stoffe enthaltendes Medium vorhanden ist. Dieses Verfahren zur Ermittlung der mikrobiologischen Aktivität ist in anderen Beispielen verwendet.
# [2] = test system: Chaetomium globosum; assay: as above; format: cell-based
# Experimental: as §1
# [3] = test system: Paecilomyces varioti; assay: as above; format: cell-based; conditions: Paecilomyces, 120 h; Wirkstoffkonzentration 0,003 %; Tabelle 3; read-out: Mycelhemmung, in %
# Experimental: as §1
# [4] = test system: Stereum hirsutum; assay: as above; format: cell-based; conditions: Stereum hirsutum, 120 h; Wirkstoffkonzentration 0,003 %; Tabelle 3; read-out: Mycelhemmung, in %
# Experimental: as §1
# [5] = Acute toxicity (LD50) in mice; format: in vivo, weißen Mäusen; conditions: mouse, in vivo, po; perorale Applikation an weißen Mäusen; read-out: LD50
# [6] = test system: Fusarium moniliforme; assay: Mycelial growth inhibition on agar (contact activity); format: cell-based; conditions: Fusarium verticillioides, 120 h, Kartoffel-Glukose-Nährmedium, read-out: Myzelhemmung in %
# [7] = test system: Venturia inaegualis; assay: as above; format: cell-based; conditions: 120 h, Kartoffel-Glukose-Nährmedium, read-out: Myzelhemmung in %
# In short: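 Compound dissolved in water and mixed into potato-glucose agar poured into dishes. Mycelium stab-inoculated after 24 h, then incubated 5 days at 24–26 °C. Colony diameters measured on day 5, and % mycelial growth inhibition calculated by Abbott's formula.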
# [8] = Storage stability (descriptive); format: physicochemical
# [9] = test system: Aspergillus niger; assay: Mycelial growth inhibition on agar (contact activity); format: cell-based; conditions: Aspergillus niger, 120 h; for inhibition of growth at 0.003 %: Wirkstoffkonzentration 0,003 %
# [10] = test system: Psoroptes cuniculi; assay: Acaricidal activity on isolated mites; format: in vivo
# Experimental: Die akarizide Aktivität der Stoffe wird an isolierten Milben Psoroptes cuniculi als Erreger der Psoroptesräude bei Kaninchen geprüft. Von frischen Verkrustungen von Kaninchen mit Psoroptesräude, werden zu diesem Zweck 50 Milbenexemplare (Larven, Nymphen, Imago) gewählt und in Petri-Schalen auf ein Filterpapierblatt übertragen. Dann bringt man auf Milben und die ganze Blattoberfläche 1,5 ml zu prüfende wäßrige Stofflösung in destilliertem Wasser auf. Die Schale wird mit Deckel verschlossen und in einen Thermostat bei 30 °C und Feuchtegehalt von 90 % angeordnet. Der Wirkstoff wird als wäßrige Lösung mit einer zwischen 0,0039 und 4 % liegenden Konzentration genommen. Als Vergleichsmuster dient gleichzeitig eine wäßrige Lösung von Chlorophos. Milben werden im Kontrollversuch (Kontrolle auf Lebensfähigkeit)mit 1,5 ml physiologischer Lösung behandelt und in einen anderen Thermostat unter gleichen Temperatur- und Feuchtigkeitsbedingungen aufgestellt.
# Nach 1, 2, 4, 6 Stunden und alle 24 Stunden betrachtet man die Milben im Mikroskop und zählt die toten Milben. Aufgrund der Milbenvernichtung durch einen 24-stündigen Kontakt mit dem Wirkstoff ermittelt man die LK-50 Werte. Die Versuche werden 5mal wiederholt. Arithmetische Mittelwerte gibt Tabelle 14 an.
# [11] = test system: Pseudomonas; assay: Bactericidal activity on agar (concentration of complete growth inhibition); format: cell-based; conditions: % bezogen auf den Wirkstoff; am 5. Tag; listed as Kaliumsalz
# Experimental: (§2) Geprüft wird die bakterizide Aktivität von Kalium-, Natrium-, Zink- und Kupfersalzen der N-(Vinyloxyäthyl)dithiocarbamidsäure gegen Bakterien der Gattungen Bacillus, Micrococcus, Pseudomonas, Escherichia und Xantomonas.
# (§3) Man stellt wäßrige Stofflösungen verschiedener Konzentration her, die so berechnet werden, daß die Stoffkonzentration in der Petri-Schale bei der Gabe von 1 ml Lösung in das geschmolzene Nährmedium (45 bis 50 °C) zwischen 0,003 und 25 % (bezogen auf den Wirkstoff) schwankt. Nach 18 bis 24 Stunden bringt man auf die Oberfläche des Nährmediums 0,1 ml wäßrige Suspension eintägiger reiner Kulturen von Bakterien auf und verteilt sie gleichmäßig. In Kontrollschalen verteilt sich 0,1 ml Wasser über die Oberfläche des Nährmediums. Die Inkubation erfolgt bei 37 °C innerhalb von 5 Tagen. Die Wirksamkeit der Stoffe wird nach dem Auftreten des Bakterienwachstums auf der Oberfläche des Nährmediums eingeschätzt. Die Prüfergebnisse sind in der Tabelle 13 dargestellt.
# [12] = test system: Micrococcus; assay: as above; format: cell-based; conditions: % bezogen auf den Wirkstoff; am 5. Tag; listed as Kaliumsalz
# Experimental: as §2, §3
# [13] = test system: Bacillus; assay: as above; format: cell-based; conditions: % bezogen auf den Wirkstoff; am 5. Tag; listed as Kaliumsalz
# Experimental: as §2, §3
# [14] = test system: Escherichia; assay: as above; format: cell-based; conditions: % bezogen auf den Wirkstoff; am 5. Tag; listed as Kaliumsalz
# Experimental: as §2, §3
# [15] = test system: Acremonium charticola; assay: Mycelial growth inhibition on agar (contact activity); format: cell-based; conditions: Acremonium charticola, 120 h; Präparatkonzentration 0,0015 %; Würzeagar; read-out: Myzelhemmung in %
# [16] = test system: Larven von Fichtenböcken; assay: Insecticidal activity, topical application to larvae; format: in vivo, Fichtenböcke; conditions: 10%ige Lösung
# Excerpt: Die hohe insektizide Aktivität von Kalium-N-(vinyloxyathyl)dithiocarbamat und Zink-bis-(N-vinyloxyathyl- dithiocarbamat) wurde in Versuchen an Larven von Fichtenböcken nachgewiesen. Geprüft wurden die 10%igen wäßrigen (oder alkoholischen) Lösungen, welche auf die Kopfbrust von Larven aufgebracht wurden. In Versuchen standen je 20 Larven zur Verfügung. Die Versuche wurden dreimal wiederholt. Die Mortalität wurde nach 1, 24 und 48 Stunden ermittelt. Die insektizide Aktivität der erfindungsgemäßen Stoffe ist bedeutend höher als die von Chlorophos.
# Die Prüfungen auf insektizide Aktivität werden an Larven von Fichtenböcken durchgeführt. Geprüft werden eine 10%ige wäßrige Lösung von Kalium-N-(vinyloxyäthyl)dithiocarbamat und eine 10%ige alkoholische Lösung von Zink-bis-N-(vinyloxyathyldithiocarbamat). In jedem Versuch stehen je 20 Larven zur Verfügung. Die Mortalität wird nach 1, 24 und 48 Stunden ermittelt. Die zu prüfenden Lösungen werden auf die Kopfbrust von Larven aufgebracht.
smiles,measurement,setting,value
C=COCCNC(=S)S [Kalium-N-(vinyloxyäthyl)dithiocarbamat],inhibition of growth at 0.003 %,"[1]; Talaromyces funiculosus, 120 h, Wirkstoffkonzentration 0,003 %, Tabelle 3, read-out: Mycelhemmung, in %",100%
same,Aktivität übersteigt Salizylanilid (Vergleichsmuster),[1]; gegen Myzelium von Penicillium funiculosum,10%
same,inhibition of growth at 0.003 %,"[2]; Chaetomium globosum, 120 h, Wirkstoffkonzentration 0,003 %, Tabelle 3, read-out: Mycelhemmung, in %",100%
same,Aktivität übersteigt Polykarbazin (Vergleichsmuster),[2]; gegen das Myzelium der Pilze Chaetomium globosum,10%
same,inhibition of growth at 0.003 %,[3],100%
same,inhibition of growth at 0.003 %,[4],100%
same,LD50,[5],1400 ± 350 mg/kg
same,inhibition of growth at 0.01 %,"[6]; Wirkstoffkonzentration 0,01 %",100%
same,inhibition of growth at 0.003 %,"[6]; Wirkstoffkonzentration 0,003 %",100%
same,inhibition of growth at 0.01 %,"[7]; Wirkstoffkonzentration 0,01 %",100%
same,inhibition of growth at 0.003 %,"[7]; Wirkstoffkonzentration 0,003 %",100%
same,Lagerbeständigkeit,[8],lagerbeständig
same,inhibition of growth at 0.01 %,"[9]; Wirkstoffkonzentration 0,01 %, Kartoffel-Glukose-Nährmedium, read-out: Myzelhemmung in %",100%
same,inhibition of growth at 0.003 %,"[9]; Kartoffel-Glukose-Nährmedium, read-out: Myzelhemmung in %",100%
same,inhibition of growth at 0.003 %,"[9]; Tabelle 3, read-out: Mycelhemmung, in %",100%
same,LK-50 %,[10]; 24-stündiger Kontakt mit dem Wirkstoff,"0,00208%"
same,Vernichtung von 100 % der Milben nach Stunden,"[10]; Konzentration 0,0039 %",48 Stunden
same,Vernichtung von 100 % der Milben nach Stunden,"[10]; Konzentration 0,0078 %",24 Stunden
same,Vernichtung von 100 % der Milben nach Stunden,"[10]; Konzentration 0,0625 %",6 Stunden
same,Vernichtung von 100 % der Milben nach Stunden,"[10]; Konzentration 0,125 bis 0,5 %",4 Stunden
same,"selektive Toxizität gegen Räudemilben, dem Chlorophos überlegen",[10]; gegenüber Chlorophos,~400 mal
same,"Konzentrationen, welche das Bakterienwachstum völlig (100 %) hemmen",[11],"0,05%"
same,"Konzentrationen, welche das Bakterienwachstum völlig (100 %) hemmen",[12],"0,05%"
same,"Konzentrationen, welche das Bakterienwachstum völlig (100 %) hemmen",[13],"0,05%"
same,"Konzentrationen, welche das Bakterienwachstum völlig (100 %) hemmen",[14],"0,05%"
same,inhibition of growth at 0.0015 %,[15],100%
same,Mortalität von Larven der Fichtenböcke,[16]; Wirkungsdauer 1 Stunde,20%
same,Mortalität von Larven der Fichtenböcke,[16]; Wirkungsdauer 24 Stunden,100%
same,Mortalität von Larven der Fichtenböcke,[16]; Wirkungsdauer 48 Stunden,100%
